Patent US7456167B2, “Cyclopropyl fused indolobenzazepine HCV NS5B inhibitors” (Bristol-Myers Squibb Company, priority 2006, dated 2008)
Where two headings read alike, the source gives them in different places.

Tests used:
[1] = biological target: T1, HCV NS5B RdRp genotype 1b (Hepatitis C virus genotype 1b, UniProt Q9WMX2); experiment: Modified HCV NS5B RdRp enzyme assay (preincubation protocol); format: biochemical
T1 construct: The protein was expressed with an 18 amino acid C-terminal truncation to enhance the solubility; made in house; host or cells: E. coli BL21(DE3)
Description: HCV NS5B RdRp cloning, expression, and purification. The cDNA encoding the NS5B protein of HCV, genotype 1b, was cloned into the pET21a expression vector. The protein was expressed with an 18 amino acid C-terminal truncation to enhance the solubility. The E. coli competent cell line BL21(DE3) was used for expression of the protein. Cultures were grown at 37° C. for ˜4 hours until the cultures reached an optical density of 2.0 at 600 nm. The cultures were cooled to 20° C. and induced with 1 mM IPTG. Fresh ampicillin was added to a final concentration of 50 μg/ml and the cells were grown overnight at 20° C.
Cell pellets (3 L) were lysed for purification to yield 15-24 mgs of purified NS5B. The lysis buffer consisted of 20 mM Tris-HCl, pH 7.4, 500 mM NaCl, 0.5% triton X-100, 1 mM DTT, 1 mM EDTA, 20% glycerol, 0.5 mg/ml lysozyme, 10 mM MgCl2, 15 ug/ml deoxyribonuclease I, and Complete TM protease inhibitor tablets (Roche). After addition of the lysis buffer, frozen cell pellets were resuspended using a tissue homogenizer. To reduce the viscosity of the sample, aliquots of the lysate were sonicated on ice using a microtip attached to a Branson sonicator. The sonicated lysate was centrifuged at 100,000×g for 1 hr at 4° C. and filtered through a 0.2 μm filter unit (Corning).
The protein was purified using three sequential chromatography steps: Heparin sepharose CL-6B, polyU sepharose 4B, and Hitrap SP sepharose (Pharmacia). The chromatography buffers were identical to the lysis buffer but contained no lysozyme, deoxyribonuclease I, MgCl2 or protease inhibitor and the NaCl concentration of the buffer was adjusted according to the requirements for charging the protein onto the column. Each column was eluted with a NaCl gradient which varied in length from 5-50 column volumes depending on the column type. After the final chromatography step, the resulting purity of the enzyme is >90% based on SDS-PAGE analysis. The enzyme was aliquoted and stored at −80° C.
Standard HCV NS5B RdRp enzyme assay. HCV RdRp genotype 1b assays were run in a final volume of 60 μl in 96 well plates (Costar 3912). The assay buffer is composed of 20 mM Hepes, pH 7.5, 2.5 mM KCl, 2.5 mM MgCl2, 1 mM DTT, 1.6 U RNAse inhibitor (Promega N2515), 0.1 mg/ml BSA (Promega R3961), and 2% glycerol. All compounds were serially diluted (3-fold) in DMSO and diluted further in water such that the final concentration of DMSO in the assay was 2%. HCV RdRp genotype 1b enzyme was used at a final concentration of 28 nM. A polyA template was used at 6 nM, and a biotinylated oligo-dT12 primer was used at 180 nM final concentration. Template was obtained commercially (Amersham 27-4110). Biotinylated primer was prepared by Sigma Genosys. 3H-UTP was used at 0.6 μCi (0.29 μM total UTP). Reactions were initiated by the addition of enzyme, incubated at 30° C. for 60 min, and stopped by adding 25 μl of 50 mM EDTA containing SPA beads (4 μg/μl, Amersham RPNQ 0007). Plates were read on a Packard Top Count NXT after >1 hr incubation at room temperature.
Modified HCV NS5B RdRp enzyme assay. A modified enzyme assay was performed essentially as described for the standard enzyme assay except for the following: The biotinylated oligo dT12 primer was precaptured on streptavidin-coated SPA beads by mixing primer and beads in assay buffer and incubating at room temperature for one hour. Unbound primer was removed after centrifugation. The primer-bound beads were resuspended in 20 mM Hepes buffer, pH 7.5 and used in the assay at final concentrations of 20 nM primer and 0.67 μg/μl beads. Order of addition in the assay: enzyme (14 nM) was added to diluted compound followed by the addition of a mixture of template (0.2 nM), 3H-UTP (0.6 μCi, 0.29 μM), and primer-bound beads, to initiate the reaction; concentrations given are final. Reactions were allowed to proceed for 4 hours at 30° C.
IC50 values for compounds were determined using seven different [I]. […]

HCV replicon cells = experiment: HCV replicon FRET assay; format: cell-based
Excerpt: FRET Assay Preparation. To perform the HCV FRET screening assay, 96-well cell culture plates were used. The FRET peptide (Anaspec, Inc.) (Taliani et al., Anal. Biochem. 1996, 240, 60-67) contains a fluorescence donor, EDANS, near one end of the peptide and an acceptor, DABCYL, near the other end. The fluorescence of the peptide is quenched by […] resonance energy transfer (RET) between the donor and the acceptor, but as the NS3 protease cleaves the peptide the products are released from RET quenching and the fluorescence of the donor becomes apparent. The assay reagent was made as follows: 5× cell Luciferase cell culture lysis reagent from Promega (#E153A) diluted to 1× with dH2O, NaCl added to 150 mM final, the FRET peptide diluted to 20 uM final from a 2 mM stock.
To prepare plates, HCV replicon cells, with or without a Renilla luciferase reporter gene, were trypsinized and placed into each well of a 96-well plate with titrated test compounds added in columns 3 through 12; columns 1 and 2 contained a control compound (HCV protease inhibitor), and the bottom row contained cells without compound. The plates were then placed in a CO2 incubator at 37° C.
Assays. Subsequent to addition of the test compounds described above (FRET Assay Preparation), at various times the plate was removed and Alamar blue solution (Trek Diagnostics, #00-100) was added per well as a measure of cellular toxicity. After reading in a Cytoflour 4000 instrument (PE Biosystems), plates were rinsed with PBS and then used for FRET assay by the addition of 30 ul of the FRET peptide assay reagent described above (FRET Assay Preparation) per well. The plate was then placed into the Cytoflour 4000 instrument which had been set to 340 excite/490 emission, automatic mode for 20 cycles and the plate read in a kinetic mode. Typically, the signal to noise using an endpoint analysis after the reads was at least three-fold. Alternatively, after Alamar blue reading, plates were rinsed with PBS, 50 ul of DMEM (high glucose) without phenol red was added and plates were then used for luciferase assay using the Promega Dual-Glo Luciferase Assay System.
Compound analysis was determined by quantification of the relative HCV replicon inhibition and the relative cytotoxicity values. To calculate cytoxicity values, the average Alamar Blue fluorescence signals from the control wells were set as 100% non-toxic. The individual signals in each of the compound test wells were then divided by the average control signal and multiplied by 100% to determine […]. To calculate the HCV replicon inhibition values, an average background value was obtained from the two wells containing the highest amount of HCV protease inhibitor at the end of the assay period. These numbers were similar to those obtained from naïve Huh-7 cells.
The background numbers were then subtracted from the average signal obtained from the control wells and this number was used as 100% activity. The individual signals in each of the compound test wells were then divided by the averaged control values after background subtraction and multiplied by 100% to determine percent activity. EC50 values for a protease inhibitor titration were calculated as the concentration which caused a 50% reduction in FRET or luciferase activity. The two numbers generated for the compound plate, percent cytoxicity and percent activity were used to determine compounds of interest for further analysis.

[2] = HCV NS5B RdRp genotype 1b, preincubation protocol, read-out: IC50
[3] = Hepatitis C virus, HCV replicon cells, FRET assay, read-out: EC50

T1 sequence (Q9WMX2 2420-2992): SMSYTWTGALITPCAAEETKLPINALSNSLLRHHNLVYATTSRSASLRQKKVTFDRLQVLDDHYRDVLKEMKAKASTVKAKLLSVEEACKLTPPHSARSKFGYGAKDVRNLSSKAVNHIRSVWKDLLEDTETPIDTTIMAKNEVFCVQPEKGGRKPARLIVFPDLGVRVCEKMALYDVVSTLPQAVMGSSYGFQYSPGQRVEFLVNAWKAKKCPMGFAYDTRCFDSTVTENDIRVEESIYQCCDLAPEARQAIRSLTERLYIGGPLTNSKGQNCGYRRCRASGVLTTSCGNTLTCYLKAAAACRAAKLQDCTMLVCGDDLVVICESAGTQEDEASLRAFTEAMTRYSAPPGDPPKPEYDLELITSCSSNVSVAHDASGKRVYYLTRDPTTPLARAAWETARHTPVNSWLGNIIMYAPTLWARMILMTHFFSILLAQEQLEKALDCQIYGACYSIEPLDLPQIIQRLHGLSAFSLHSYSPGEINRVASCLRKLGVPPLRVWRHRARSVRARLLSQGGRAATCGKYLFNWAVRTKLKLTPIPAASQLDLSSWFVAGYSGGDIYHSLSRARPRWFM

Q: How did the IC50 [1, 2] turn out when `COc1ccc2c(c1)C1CC1(S(=O)(=O)N1CCN3CCCC3C1)Cn1c-2c(C2CCCCC2)c2ccc(C(=O)NS(=O)(=O)N3CCOCC3)cc21` (stereo not shown) [drawing 65] was run?
A: 20 to 1000 nM

Q: What about the EC50 (HCV replicon cells; HCV replicon cells, FRET assay, read-out: EC50) of the same compound?
A: 20 to 1000 nM

Q: `COc1ccc2c(c1)C1CC1(S(=O)(=O)N1CC[C@@H](N(C)C)C1)Cn1c-2c(C2CCCCC2)c2ccc(C(=O)NS(=O)(=O)C(C)C)cc21` (stereo partly shown) was tested. Which IC50 [1, 2] did it give?
A: 20 to 1000 nM

Q: What about the EC50 (HCV replicon cells; [3]) of the same compound?
A: 20 to 1000 nM

Q: Which results are given for `COc1ccc2c(c1)C1CC1(S(=O)(=O)N1CCC1)Cn1c-2c(C2CCCCC2)c2ccc(C(=O)NS(=O)(=O)C(C)C)cc21` (stereo not shown)?
A: IC50 [1, 2]: 20 to 1000 nM; EC50 (HCV replicon cells; [3]): 20 to 1000 nM

Q: What does the source list for `COC(=O)c1ccc2c(C3CCCCC3)c3n(c2c1)CC1(S(=O)(=O)O)CC1c1cc(OC)ccc1-3` (stereo not shown)?
A: IC50 [1, 2]: 70 to 1000 nM; EC50 (HCV replicon cells; [3]): > 1000 nM

Q: How did the IC50 [1] turn out when `COc1ccc2c(c1)C1CC1(S(=O)(=O)N1C3CCC1CN(C)C3)Cn1c-2c(C2CCCCC2)c2ccc(C(=O)NS(=O)(=O)N(C)C)cc21` (stereo not shown) was run?
A: 20 to 1000 nM

Q: What about the EC50 (HCV replicon cells; Hepatitis C virus) of the same compound?
A: 20 to 1000 nM

Q: What does the source list for `COc1ccc2c(c1)CC(S(=O)(=O)CCN1CCN(C)CC1)Cn1c-2c(C2CCCCC2)c2ccc(C(=O)NS(=O)(=O)N(C)C)cc21` (stereo not shown)?
A: IC50 [1, 2]: 20 to 1000 nM; EC50 (HCV replicon cells; [3]): 20 to 1000 nM

Q: `COc1ccc2c(c1)C1CC1(S(=O)(=O)N1CC3C[C@H]1CN3C)Cn1c-2c(C2CCCCC2)c2ccc(C(=O)O)cc21` (stereo partly shown) was tested. Which IC50 [1, 2] did it give?
A: 20 to 1000 nM

Q: What about the EC50 (HCV replicon cells; [3]) of the same compound?
A: 20 to 1000 nM

Q: With `COc1ccc2c(c1)C1CC1(S(=O)(=O)N1C3CCC1CC(C)(O)C3)Cn1c-2c(C2CCCCC2)c2ccc(C(=O)NS(=O)(=O)N(C)C)cc21` (stereo not shown) as the compound, how does the IC50 [1] read?
A: 20 to 1000 nM

Q: And the EC50 (HCV replicon cells; Hepatitis C virus)?
A: 20 to 1000 nM

Q: `COc1ccc2c(c1)C1CC1(S(=O)(=O)N1CCC[C@H]3CN(Cc4ccccc4)C[C@H]31)Cn1c-2c(C2CCCCC2)c2ccc(C(=O)NS(=O)(=O)N3CCOCC3)cc21` (stereo partly shown) was tested. Which IC50 [1, 2] did it give?
A: 20 to 1000 nM

Q: And the EC50 (HCV replicon cells; [3])?
A: 20 to 1000 nM

Q: For `COc1ccc2c(c1)CC(S(=O)(=O)N1CCOCC1)Cn1c-2c(C2CCCCC2)c2ccc(C(=O)NS(=O)(=O)N(C)C)cc21` (stereo not shown), which IC50 [1, 2] is on record?
A: 20 to 1000 nM

Q: And the EC50 (HCV replicon cells; [3])?
A: 20 to 1000 nM

Q: What does the source list for `COc1ccc2c(c1)C1CC1(S(=O)(=O)N1C[C@@H](C)N(C)[C@@H](C)C1)Cn1c-2c(C2CCCCC2)c2ccc(C(=O)NS(=O)(=O)N3CCCC3)cc21` (stereo partly shown)?
A: IC50 [1, 2]: 20 to 1000 nM; EC50 (HCV replicon cells; [3]): 20 to 1000 nM

Q: Which IC50 [1, 2] does the source give for `COc1ccc2c(c1)C1CC1(S(=O)(=O)N1CCC(O)CC1)Cn1c-2c(C2CCCCC2)c2ccc(C(=O)O)cc21` (stereo not shown) here?
A: 20 to 1000 nM

Q: And the EC50 (HCV replicon cells; [3])?
A: 20 to 1000 nM

Q: `CCS(=O)(=O)C1Cc2ccccc2-c2c(C3CCCCC3)c3ccc(C(=O)NS(=O)(=O)N(C)C)cc3n2C1` (stereo not shown) was tested. Which IC50 [1, 2] did it give?
A: 20 to 1000 nM

Q: What about the EC50 (HCV replicon cells; [3]) of the same compound?
A: 20 to 1000 nM

Q: Which IC50 [1, 2] does the source give for `COc1ccc2c(c1)C1CC1(S(=O)(=O)N1CC[C@@H](N(C)C)C1)Cn1c-2c(C2CCCCC2)c2ccc(C(=O)NS(=O)(=O)N3CCOCC3)cc21` (stereo partly shown) here?
A: 20 to 1000 nM

Q: And the EC50 (HCV replicon cells; [3])?
A: 20 to 1000 nM
